A word on the IC50: it is the point on the concentration scale where inhibition reaches its midpoint. Usually half-life stands for the time needed for the level to fall by half in the phase considered.

Results on 30 compounds are retold here after US20260049077A1, “Neurotrophic Receptor Tyrosine Kinase (NTRK) Inhibitors and Methods Using Same” (Baylor College of Medicine, priority 2022, published 2026).

One series has as its target NTRK1 (Homo sapiens (Human), UniProt P04629). As to the kind of experiment: NTRK1 inhibition (IC50).
In the next series the target is NTRK3 (Homo sapiens (Human), UniProt Q16288). As to the kind of experiment: NTRK3 inhibition (IC50). Particulars: read-out: NTRK3 IC50.
NTRK3, sequence (Q16288 32-839): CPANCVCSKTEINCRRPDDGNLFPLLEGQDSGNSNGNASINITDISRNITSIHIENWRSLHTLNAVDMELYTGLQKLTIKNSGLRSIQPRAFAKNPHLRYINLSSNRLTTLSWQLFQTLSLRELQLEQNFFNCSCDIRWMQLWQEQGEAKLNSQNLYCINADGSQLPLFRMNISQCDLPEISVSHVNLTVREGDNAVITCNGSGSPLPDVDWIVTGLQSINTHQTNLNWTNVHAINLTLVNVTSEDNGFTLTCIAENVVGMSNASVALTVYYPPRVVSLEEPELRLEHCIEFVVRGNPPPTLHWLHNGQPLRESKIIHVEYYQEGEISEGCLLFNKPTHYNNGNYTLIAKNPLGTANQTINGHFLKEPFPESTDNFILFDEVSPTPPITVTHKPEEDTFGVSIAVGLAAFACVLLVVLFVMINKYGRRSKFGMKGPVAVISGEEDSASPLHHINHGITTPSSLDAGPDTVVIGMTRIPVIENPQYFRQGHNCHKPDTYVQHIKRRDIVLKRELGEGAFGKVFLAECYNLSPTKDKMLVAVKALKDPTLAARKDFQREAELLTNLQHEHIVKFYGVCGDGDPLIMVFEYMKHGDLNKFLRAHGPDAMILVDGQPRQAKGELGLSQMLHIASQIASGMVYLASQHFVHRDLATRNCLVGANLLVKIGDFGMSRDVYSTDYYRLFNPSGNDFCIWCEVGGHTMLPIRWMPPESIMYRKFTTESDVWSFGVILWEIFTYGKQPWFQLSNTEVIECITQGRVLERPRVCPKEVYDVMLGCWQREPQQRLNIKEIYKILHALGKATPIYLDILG
The next series has as its target NTRK2 (Homo sapiens (Human), UniProt Q16620). The series is described as follows: NTRK2 inhibition (IC50). In kind it is biochemical.
The nature of series [1]: Metabolic stability in mouse liver microsomes (MLM). (Liver microsomes are vesicles of endoplasmic reticulum, rich in cytochrome P450 enzymes.)
The nature of series [2]: Metabolic stability in human liver microsomes (HLM).

SMILES strings stand for the structures. Like-named read-outs stand apart in the source and are kept apart here. Bounds are passed on as bounds.

NTRK2, sequence (Q16620 32-822): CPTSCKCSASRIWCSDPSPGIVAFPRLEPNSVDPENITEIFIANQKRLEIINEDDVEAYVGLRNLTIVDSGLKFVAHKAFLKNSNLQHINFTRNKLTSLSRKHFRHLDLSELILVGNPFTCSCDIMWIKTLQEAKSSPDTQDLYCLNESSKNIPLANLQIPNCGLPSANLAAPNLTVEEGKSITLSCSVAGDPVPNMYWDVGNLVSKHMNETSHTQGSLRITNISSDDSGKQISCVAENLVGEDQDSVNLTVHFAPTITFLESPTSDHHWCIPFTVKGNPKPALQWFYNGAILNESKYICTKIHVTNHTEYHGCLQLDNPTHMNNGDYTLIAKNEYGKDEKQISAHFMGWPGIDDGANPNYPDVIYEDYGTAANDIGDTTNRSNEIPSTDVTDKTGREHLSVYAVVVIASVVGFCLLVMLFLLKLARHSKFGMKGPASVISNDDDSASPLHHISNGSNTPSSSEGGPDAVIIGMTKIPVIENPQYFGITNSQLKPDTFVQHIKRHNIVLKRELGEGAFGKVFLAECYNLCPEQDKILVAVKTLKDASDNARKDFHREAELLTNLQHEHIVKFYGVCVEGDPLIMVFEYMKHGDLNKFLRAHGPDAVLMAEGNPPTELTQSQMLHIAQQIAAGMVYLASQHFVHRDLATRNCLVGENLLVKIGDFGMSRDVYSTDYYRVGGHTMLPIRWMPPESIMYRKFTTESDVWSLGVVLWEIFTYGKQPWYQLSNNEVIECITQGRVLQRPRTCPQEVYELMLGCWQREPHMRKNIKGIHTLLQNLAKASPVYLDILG
NTRK1, sequence (P04629 33-796): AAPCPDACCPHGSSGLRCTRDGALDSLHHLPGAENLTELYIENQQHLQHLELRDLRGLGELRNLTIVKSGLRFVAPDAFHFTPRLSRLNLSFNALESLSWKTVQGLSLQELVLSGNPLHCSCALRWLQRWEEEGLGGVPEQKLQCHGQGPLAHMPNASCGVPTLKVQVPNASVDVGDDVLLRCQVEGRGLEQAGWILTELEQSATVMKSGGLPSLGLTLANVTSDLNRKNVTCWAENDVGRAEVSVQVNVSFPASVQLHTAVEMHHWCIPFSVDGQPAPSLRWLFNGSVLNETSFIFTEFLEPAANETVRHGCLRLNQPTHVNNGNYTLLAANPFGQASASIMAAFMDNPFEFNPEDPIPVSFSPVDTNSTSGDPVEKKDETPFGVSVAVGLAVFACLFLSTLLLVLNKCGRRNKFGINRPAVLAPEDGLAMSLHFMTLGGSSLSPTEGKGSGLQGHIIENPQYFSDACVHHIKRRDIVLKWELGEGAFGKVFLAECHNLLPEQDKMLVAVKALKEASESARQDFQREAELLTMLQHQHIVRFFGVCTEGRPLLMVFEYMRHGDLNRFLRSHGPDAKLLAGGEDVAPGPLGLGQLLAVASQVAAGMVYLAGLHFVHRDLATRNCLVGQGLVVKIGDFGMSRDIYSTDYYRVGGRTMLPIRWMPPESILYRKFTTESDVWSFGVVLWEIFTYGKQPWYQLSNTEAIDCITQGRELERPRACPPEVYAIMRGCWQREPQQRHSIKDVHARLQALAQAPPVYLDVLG

With `CC(C)N(Cc1ccc2[nH]ccc2c1)C(=O)Nc1ccc(OC(F)(F)F)cc1` [CDD-3265, 1-((1H-indol-5-yl)methyl)-1-isopropyl-3-(4-(trifluoromethoxy)phenyl)urea], the results for the IC50 at NTRK1 (read-out: NTRK1 IC50), on NTRK3 and on NTRK2 were 50.1 µM, 55.1 µM and 53.7 µM, respectively.

Take `CN(Cc1ccn2ncc(C(N)=O)c2c1)C(=O)COc1ccc(C(C)(C)C)cc1` [CDD-3183, 5-((2-(4-(tert-butyl)phenoxy)-N-methylacetamido)methyl)pyrazolo[1,5-a]pyridine-3-carboxamide]: the half-maximal inhibitory concentration (IC50) at NTRK1 (read-out: NTRK1 IC50) was determined as 3.61 µM; on NTRK2, 0.247 µM.

As to `CN(Cc1ccn2ncc(C(N)=O)c2c1)C(=O)COc1cccc(OC(F)(F)F)c1` [CDD-3182, 5-((N-methyl-2-(3-(trifluoromethoxy)phenoxy)acetamido)methyl)pyrazolo[1,5-a]pyridine-3-carboxamide], the results for the half-inhibitory concentration (IC50) at NTRK1 (read-out: NTRK1 IC50) and at NTRK2 were 4.06 µM and 0.354 µM, respectively.

`O=C(Nc1ccccc1OC(F)(F)F)N(Cc1ccn2nccc2c1)C1CCC1` [CDD-2300, 1-cyclobutyl-1-(pyrazolo[1,5-a]pyridin-5-ylmethyl)-3-(2-(trifluoromethoxy)phenyl)urea]: the IC50 on NTRK2 was > 10 µM.

Take `CC(C)N(Cc1ccc2[nH]ccc2c1)C(=O)COc1ccc(OC(F)(F)F)cc1` [CDD-3264, N-((1H-indol-5-yl)methyl)-N-isopropyl-2-(4-(trifluoromethoxy)phenoxy)acetamide]: the concentration for half-maximal inhibition (IC50) amounted to 43.9 µM on NTRK1 (read-out: NTRK1 IC50), 21.8 µM at NTRK3 and 2.09 µM against NTRK2.

Regarding `O=C(Nc1ccc(OC(F)(F)F)cc1)N(Cc1ccn2nccc2c1)C1CC1` [CDD-2275, 1-cyclopropyl-1-(pyrazolo[1,5-a]pyridin-5-ylmethyl)-3-(4-(trifluoromethoxy)phenyl)urea], inhibition against NTRK2 was half-maximal at 0.046 µM (IC50). In addition, the half-life in series [1] was 0.933 h; in series [2], 1.5 h.

With `C[C@@H]1CCc2ncc(F)cc2[C@H]2CCCN2c2ccn3ncc(c3n2)C(=O)N1` [Selitrectinib, (6R,15R)-9-fluoro-15-methyl-2,11,16,20,21,24-hexazapentacyclo[16.5.2.02,6.07,12.021,25]pentacosa-1(24),7(12),8,10,18(25),19,22-heptaen-17-one, reference compound], the half-life in series [1] turned out to be 0.533 h; in series [2] it was 4.07 h.

Take `CN(Cc1ccn2ncc(C(N)=O)c2c1)C(=O)CN(C)c1ccc(C(C)(C)C)cc1` [CDD-3185, 5-((2-((4-(tert-butyl)phenyl)(methyl)amino)-N-methylacetamido)methyl)pyrazolo[1,5-a]pyridine-3-carboxamide]: the concentration for half-maximal inhibition (IC50) on NTRK1 (read-out: NTRK1 IC50) came out at 10.9 µM; on NTRK2, 1.75 µM.

With `CNC(=O)[C@@H](Cc1ccc([N+](=O)[O-])cc1)NC(=O)Nc1ccc(Oc2ccccc2)cc1` [CDD-3100, (R)-N-methyl-3-(4-nitrophenyl)-2-(3-(4-phenoxyphenyl)ureido)propanamide], the results for the IC50 on NTRK1 (read-out: NTRK1 IC50) and against NTRK2 were 26.3 µM and 37.2 µM, respectively.

In the case of `CN(Cc1ccn2ncc(C(N)=O)c2c1)S(=O)(=O)Nc1ccc(OC(F)(F)F)cc1` [CDD-3308, 5-((methyl(N-(4-(trifluoromethoxy)phenyl)sulfamoyl)amino)methyl)pyrazolo[1,5-a]pyridine-3-carboxamide], the results for the IC50 at NTRK1 (read-out: NTRK1 IC50), at NTRK3 and at NTRK2 were 28.4 µM, 4.32 µM and 4.45 µM, respectively.

Consider `CN(C)C(=O)[C@H](Cc1cccc([N+](=O)[O-])c1)NC(=O)Nc1c(Cl)cccc1C(F)(F)F` [CDD-3099, (S)-2-(3-(2-chloro-6-(trifluoromethyl)phenyl)ureido)-N,N-dimethyl-3-(3-nitrophenyl)propanamide], for which the half-maximal inhibitory concentration (IC50) against NTRK1 came out at 39.6 µM; against NTRK2 it was 47.4 µM.

Regarding `O=C(Nc1ccc(OC(F)(F)F)cc1)N(Cc1ccn2nccc2c1)C1CCCCCC1` [CDD-2301, 1-cycloheptyl-1-(pyrazolo[1,5-a]pyridin-5-ylmethyl)-3-(4-(trifluoromethoxy)phenyl)urea], at NTRK2, inhibition was half-maximal at 0.513 µM (IC50).

Consider `O=C(O)c1cnn2ccc(CN(C(=O)Nc3ccc(OC(F)(F)F)cc3)C3CC3)cc12` [CDD-2736, 5-((1-cyclopropyl-3-(4-(trifluoromethoxy)phenyl)ureido)methyl)pyrazolo[1,5-a]pyridine-3-carboxylic acid], for which the IC50 at NTRK1 (read-out: NTRK1 IC50) stood at 0.0041 µM; on NTRK3, 0.0033 µM; against NTRK2 it was 0.0025 µM.

In the case of `CCC(C)N(Cc1ccn2ncc(C(=O)O)c2c1)C(=O)Nc1ccc(OC(F)(F)F)cc1` (stereo not shown) [CDD-2743, 5-((1-(sec-butyl)-3-(4-(trifluoromethoxy)phenyl)ureido)methyl)pyrazolo[1,5-a]pyridine-3-carboxylic acid], the IC50 on NTRK1 (read-out: NTRK1 IC50) was 0.0095 µM; at NTRK3 it was 0.0054 µM; at NTRK2, 0.006 µM.

For the compound `CC(C)N(Cc1ccn2nccc2c1)C(=O)CNc1ccc(C2(C(F)(F)F)CC2)cc1` [CDD-3307, N-isopropyl-N-(pyrazolo[1,5-a]pyridin-5-ylmethyl)-2-((4-(1-(trifluoromethyl)cyclopropyl)phenyl)amino)acetamide], the IC50 on NTRK1 (read-out: NTRK1 IC50) was determined as 2.17 µM; at NTRK3, 0.922 µM; on NTRK2, 0.414 µM.

In the case of `CC(C)N(Cc1ccn2ncc(Br)c2c1)C(=O)Nc1ccc(OC(F)(F)F)cc1` [CDD-2735, 1-((3-bromopyrazolo[1,5-a]pyridin-5-yl)methyl)-1-isopropyl-3-(4-(trifluoromethoxy)phenyl)urea], the IC50 on NTRK1 (read-out: NTRK1 IC50) worked out at 0.0043 µM; at NTRK3 it was 0.0044 µM; on NTRK2 it was 0.0036 µM.

Take `O=C(Nc1ccc([N+](=O)[O-])cc1)N(Cc1ccn2nccc2c1)C1CCC1` [CDD-2297, 1-cyclobutyl-3-(4-nitrophenyl)-1-(pyrazolo[1,5-a]pyridin-5-ylmethyl)urea]: at NTRK2, the IC50 was > 10 µM.

In the case of `CC(C)c1ccc(OCC(=O)N(C)Cc2ccn3ncc(C(N)=O)c3c2)cc1` [CDD-3120, 5-((2-(4-isopropylphenoxy)-N-methylacetamido)methyl)pyrazolo[1,5-a]pyridine-3-carboxamide], the IC50 at NTRK1 (read-out: NTRK1 IC50) is 1.78 µM; at NTRK2, 0.242 µM.

On to `CC[C@@H](C)N(Cc1ccn2ncc(C(N)=O)c2c1)C(=O)Nc1ccc(OC(F)(F)F)cc1` [CDD-3057, (R)-5-((1-(sec-butyl)-3-(4-(trifluoromethoxy)phenyl)ureido)methyl)pyrazolo[1,5-a]pyridine-3-carboxamide], for which the half-inhibitory concentration (IC50) worked out at 0.0176 µM on NTRK1 (read-out: NTRK1 IC50), 0.0066 µM on NTRK3 and 0.004 µM against NTRK2.

Turning to `CC[C@H](C)N(Cc1ccn2ncc(C(N)=O)c2c1)C(=O)Nc1ccc(OC(F)(F)F)cc1` [CDD-3058, (S)-5-((1-(sec-butyl)-3-(4-(trifluoromethoxy)phenyl)ureido)methyl)pyrazolo[1,5-a]pyridine-3-carboxamide], the half-maximal inhibitory concentration (IC50) at NTRK1 (read-out: NTRK1 IC50) came out at 0.0117 µM; at NTRK3, 0.0084 µM; on NTRK2, 0.0037 µM.

On to `O=C(Nc1ccc(OC(F)(F)F)cc1)N(Cc1ccn2nccc2c1)C1CCCCC1` [CDD-2298, 1-cyclohexyl-1-(pyrazolo[1,5-a]pyridin-5-ylmethyl)-3-(4-(trifluoromethoxy)phenyl)urea], for which, on NTRK2, the half-inhibitory concentration (IC50) turned out to be 0.099 µM.

`CC(C)N(Cc1ccn2nccc2c1)C(=O)CNc1ccc(C(C)(C)C)nc1` [CDD-3306, 2-((6-(tert-butyl)pyridin-3-yl)amino)-N-isopropyl-N-(pyrazolo[1,5-a]pyridin-5-ylmethyl)acetamide]: the concentration for half-maximal inhibition (IC50) on NTRK1 (read-out: NTRK1 IC50) was 2.41 µM; at NTRK3 it was 4.77 µM; against NTRK2, 1.13 µM.

For the compound `CC(C)CN(Cc1ccn2ncc(C(=O)O)c2c1)C(=O)Nc1ccc(OC(F)(F)F)cc1` [CDD-2742, 5-((1-isobutyl-3-(4-(trifluoromethoxy)phenyl)ureido)methyl)pyrazolo[1,5-a]pyridine-3-carboxylic acid], the IC50 was 0.104 µM on NTRK1 (read-out: NTRK1 IC50), 0.0118 µM on NTRK3 and 0.0057 µM at NTRK2.

Turning to `CC(C)c1ccc(OCC(=O)NCc2ccn3ncc(C(N)=O)c3c2)cc1` [CDD-3129, 5-((2-(4-isopropylphenoxy)acetamido)methyl)pyrazolo[1,5-a]pyridine-3-carboxamide], the IC50 on NTRK1 (read-out: NTRK1 IC50) was determined as 9.54 µM; against NTRK2 it was 3.77 µM.

Regarding `O=C(Nc1ccc(OC(F)(F)F)cc1)N(Cc1ccn2nccc2c1)c1ccccc1` [CDD-2296, 1-phenyl-1-(pyrazolo[1,5-a]pyridin-5-ylmethyl)-3-(4-(trifluoromethoxy)phenyl)urea], the concentration for half-maximal inhibition (IC50) against NTRK2 was 0.335 µM.

`C[C@H]1CNC(=O)c2cnn3ccc(nc23)N[C@H](C)c2cc(F)ccc2O1` [Reprotrectinib, (3R,11S)-6-fluoro-3,11-dimethyl-10-oxa-2,13,17,18,21-pentazatetracyclo[13.5.2.04,9.018,22]docosa-1(21),4(9),5,7,15(22).16,19-heptaen-14-one, reference compound]: the “MLM t1/2” value in series [1] is 2.78 h. Moreover, the “HLM t1/2” value in series [2] is 4.23 h.

On to `CN(Cc1ccn2ncc(C(N)=O)c2c1)C(=O)CCc1ccc(OC(F)(F)F)cc1` [CDD-3121, 5-((N-methyl-3-(4-(trifluoromethoxy)phenyl)propanamido)methyl)pyrazolo[1,5-a]pyridine-3-carboxamide], for which the IC50 on NTRK1 (read-out: NTRK1 IC50) amounted to 11.6 µM; on NTRK2 it was 3.24 µM.

Turning to `NC(=O)c1cnn2ccc(CNC(=O)Nc3ccc(OC(F)(F)F)cc3)cc12` [CDD-3130, 5-((3-(4-(trifluoromethoxy)phenyl)ureido)methyl)pyrazolo[1,5-a]pyridine-3-carboxamide], the results for the IC50 at NTRK1 (read-out: NTRK1 IC50) and at NTRK2 were 9.2 µM and 1.27 µM, respectively.

With `Cc1nnc2n1-c1ccc(Cl)cc1C(c1ccccc1)=NC2` [Alprazolam], the half-life in series [1] came to 5.83 h; in series [2], 12.2 h.

Take `CN(Cc1ccn2ncc(C(N)=O)c2c1)C(=O)COc1ccc(C(F)(F)F)cc1` [CDD-3181, 5-((N-methyl-2-(4-(trifluoromethyl)phenoxy)acetamido)methyl)pyrazolo[1,5-a]pyridine-3-carboxamide]: the figures for the IC50 at NTRK1 (read-out: NTRK1 IC50) and at NTRK2 were 6.72 µM and 1.06 µM, respectively.
